Here are results for two compounds from ChEMBL document CHEMBL5303573, “Mapping human microbiome drug metabolism by gut bacteria and their genes” (Nature, 2019).

The first data set in a line: The drug is tested on Ruminococcus torques strain: ATCC27756 for biotransformation. The drug concentrations were measured before and after a 12-h incubation by liquid-chromatography-coupled mass spectrometry (LC–MS). The data set is classed as ADME. The arrangement: dose 2 uM, timepoint 0 vs 12 hours. Conditions: 2 µM.
For `Br.CN1CCC[C@@H]1Cc1c[nH]c2ccc(CCS(=O)(=O)c3ccccc3)cc12` [ELETRIPTAN HYDROBROMIDE], the “Bacterial Biotransformation” value was “Compound NOT metabolized”.

A further data set can be described thus: The drug is tested on Clostridium sporogenes strain: ATCC15579 for biotransformation. The drug concentrations were measured before and after a 12-h incubation by liquid-chromatography-coupled mass spectrometry (LC–MS). Conditions: 2 µM.
In the case of `Br.CN1CCC[C@@H]1Cc1c[nH]c2ccc(CCS(=O)(=O)c3ccccc3)cc12` [ELETRIPTAN HYDROBROMIDE], the “Bacterial Biotransformation” value is “Compound NOT metabolized”.

A further data set can be described thus: The drug is tested on Coprococcus comes strain: ATCC27758 for biotransformation. The drug concentrations were measured before and after a 12-h incubation by liquid-chromatography-coupled mass spectrometry (LC–MS). The data set is classed as ADME. The arrangement: dose 2 uM, timepoint 0 vs 12 hours. Conditions: 2 µM.
On to `Br.CN1CCC[C@@H]1Cc1c[nH]c2ccc(CCS(=O)(=O)c3ccccc3)cc12` [ELETRIPTAN HYDROBROMIDE], for which the “Bacterial Biotransformation” value is “Compound NOT metabolized”.

The next data set can be described thus: The drug is tested on Odoribacter splanchnicus strain: fecal isolate for biotransformation. The drug concentrations were measured before and after a 12-h incubation by liquid-chromatography-coupled mass spectrometry (LC–MS). Conditions: 2 µM.
Consider `Br.CN1CCC[C@@H]1Cc1c[nH]c2ccc(CCS(=O)(=O)c3ccccc3)cc12` [ELETRIPTAN HYDROBROMIDE], for which the “Bacterial Biotransformation” value was “Compound NOT metabolized”.

For another data set the following is noted: segatella copri, 12 h, 2 µM.
Description: The drug is tested on Prevotella copri strain: DSM18205 for biotransformation. The drug concentrations were measured before and after a 12-h incubation by liquid-chromatography-coupled mass spectrometry (LC–MS)
Take `Br.CN1CCC[C@@H]1Cc1c[nH]c2ccc(CCS(=O)(=O)c3ccccc3)cc12` [ELETRIPTAN HYDROBROMIDE]: the “Bacterial Biotransformation” value was “Compound NOT metabolized”.

Regarding `CC(C)OC(=O)C(C)(C)Oc1ccc(C(=O)c2ccc(Cl)cc2)cc1` [FENOFIBRATE], the “Bacterial Biotransformation” value was “Compound metabolized”.

The conditions of a further data set: anaerostipes sp., 12 h, 2 µM.
Description: The drug is tested on Anaerostipes sp. strain: fecal isolate for biotransformation. The drug concentrations were measured before and after a 12-h incubation by liquid-chromatography-coupled mass spectrometry (LC–MS)
`Br.CN1CCC[C@@H]1Cc1c[nH]c2ccc(CCS(=O)(=O)c3ccccc3)cc12` [ELETRIPTAN HYDROBROMIDE]: the “Bacterial Biotransformation” value is “Compound NOT metabolized”.

Take `CC(C)OC(=O)C(C)(C)Oc1ccc(C(=O)c2ccc(Cl)cc2)cc1` [FENOFIBRATE]: the “Bacterial Biotransformation” value is “Compound metabolized”.

A short description of another data set: The drug is tested on Bacteroides xylanisolvens strain: DSM18836 for biotransformation. The drug concentrations were measured before and after a 12-h incubation by liquid-chromatography-coupled mass spectrometry (LC–MS). Conditions: 2 µM.
For the compound `Br.CN1CCC[C@@H]1Cc1c[nH]c2ccc(CCS(=O)(=O)c3ccccc3)cc12` [ELETRIPTAN HYDROBROMIDE], the “Bacterial Biotransformation” value is “Compound NOT metabolized”.

The next data set can be described thus: The drug is tested on Ruminococcus lactaris strain: ATCC29176 for biotransformation. The drug concentrations were measured before and after a 12-h incubation by liquid-chromatography-coupled mass spectrometry (LC–MS). The settings on record: 2 µM.
Turning to `Br.CN1CCC[C@@H]1Cc1c[nH]c2ccc(CCS(=O)(=O)c3ccccc3)cc12` [ELETRIPTAN HYDROBROMIDE], the “Bacterial Biotransformation” value is reported as “Compound NOT metabolized”.

A short description of another data set: The drug is tested on Bacteroides vulgatus strain: ATCC8482 for biotransformation. The drug concentrations were measured before and after a 12-h incubation by liquid-chromatography-coupled mass spectrometry (LC–MS). The settings on record: phocaeicola vulgatus, 2 µM.
With `Br.CN1CCC[C@@H]1Cc1c[nH]c2ccc(CCS(=O)(=O)c3ccccc3)cc12` [ELETRIPTAN HYDROBROMIDE], the “Bacterial Biotransformation” value is “Compound NOT metabolized”.

A short description of the next data set: The drug is tested on Eubacterium ventriosum strain: ATCC27560 for biotransformation. The drug concentrations were measured before and after a 12-h incubation by liquid-chromatography-coupled mass spectrometry (LC–MS). The format is ADME. Also noted: dose 2 uM, timepoint 0 vs 12 hours. Conditions: 2 µM.
On to `Br.CN1CCC[C@@H]1Cc1c[nH]c2ccc(CCS(=O)(=O)c3ccccc3)cc12` [ELETRIPTAN HYDROBROMIDE], for which the “Bacterial Biotransformation” value was “Compound NOT metabolized”.

The nature of the next data set: The drug is tested on Providencia rettgeri strain: DSM1131 for biotransformation. The drug concentrations were measured before and after a 12-h incubation by liquid-chromatography-coupled mass spectrometry (LC–MS). Also noted: dose 2 uM, timepoint 0 vs 12 hours. The data set is classed as ADME. The settings on record: 2 µM.
For `Br.CN1CCC[C@@H]1Cc1c[nH]c2ccc(CCS(=O)(=O)c3ccccc3)cc12` [ELETRIPTAN HYDROBROMIDE], the “Bacterial Biotransformation” value is listed as “Compound NOT metabolized”.

In the case of `CC(C)OC(=O)C(C)(C)Oc1ccc(C(=O)c2ccc(Cl)cc2)cc1` [FENOFIBRATE], the “Bacterial Biotransformation” value was “Compound NOT metabolized”.

The nature of the next data set: The drug is tested on Dorea formicigenerans strain: ATCC27755 for biotransformation. The drug concentrations were measured before and after a 12-h incubation by liquid-chromatography-coupled mass spectrometry (LC–MS). Conditions: 2 µM.
In the case of `Br.CN1CCC[C@@H]1Cc1c[nH]c2ccc(CCS(=O)(=O)c3ccccc3)cc12` [ELETRIPTAN HYDROBROMIDE], the “Bacterial Biotransformation” value was “Compound NOT metabolized”.

The next data set can be described thus: The drug is tested on Bacteroides fragilis strain: HMW615 for biotransformation. The drug concentrations were measured before and after a 12-h incubation by liquid-chromatography-coupled mass spectrometry (LC–MS). The settings on record: 2 µM.
For `CC(C)OC(=O)C(C)(C)Oc1ccc(C(=O)c2ccc(Cl)cc2)cc1` [FENOFIBRATE], the “Bacterial Biotransformation” value is “Compound NOT metabolized”.

Another data set can be described thus: The drug is tested on Bacteroides uniformis strain: ATCC8492 for biotransformation. The drug concentrations were measured before and after a 12-h incubation by liquid-chromatography-coupled mass spectrometry (LC–MS). The settings on record: 2 µM.
As to `Br.CN1CCC[C@@H]1Cc1c[nH]c2ccc(CCS(=O)(=O)c3ccccc3)cc12` [ELETRIPTAN HYDROBROMIDE], the “Bacterial Biotransformation” value is on record as “Compound NOT metabolized”.

Regarding `CC(C)OC(=O)C(C)(C)Oc1ccc(C(=O)c2ccc(Cl)cc2)cc1` [FENOFIBRATE], the “Bacterial Biotransformation” value is on record as “Compound metabolized”.

Another data set in a line: The drug is tested on Enterococcus faecalis strain: V583 for biotransformation. The drug concentrations were measured before and after a 12-h incubation by liquid-chromatography-coupled mass spectrometry (LC–MS). Conditions: 2 µM.
`Br.CN1CCC[C@@H]1Cc1c[nH]c2ccc(CCS(=O)(=O)c3ccccc3)cc12` [ELETRIPTAN HYDROBROMIDE]: the “Bacterial Biotransformation” value was “Compound NOT metabolized”.

For a further data set the following is noted: akkermansia muciniphila, 12 h, 2 µM.
Description: The drug is tested on Akkermansia muciniphila strain: ATCC BAA-835 for biotransformation. The drug concentrations were measured before and after a 12-h incubation by liquid-chromatography-coupled mass spectrometry (LC–MS)
`Br.CN1CCC[C@@H]1Cc1c[nH]c2ccc(CCS(=O)(=O)c3ccccc3)cc12` [ELETRIPTAN HYDROBROMIDE]: the “Bacterial Biotransformation” value is recorded as “Compound NOT metabolized”.

For the next data set the following is noted: roseburia intestinalis, 12 h, 2 µM.
Description: The drug is tested on Roseburia intestinalis strain: L1-82 for biotransformation. The drug concentrations were measured before and after a 12-h incubation by liquid-chromatography-coupled mass spectrometry (LC–MS)
As for `Br.CN1CCC[C@@H]1Cc1c[nH]c2ccc(CCS(=O)(=O)c3ccccc3)cc12` [ELETRIPTAN HYDROBROMIDE], the “Bacterial Biotransformation” value was “Compound NOT metabolized”.

Another data set in a line: The drug is tested on Bifidobacterium ruminantium strain: fecal isolate for biotransformation. The drug concentrations were measured before and after a 12-h incubation by liquid-chromatography-coupled mass spectrometry (LC–MS). The settings on record: 2 µM.
For the compound `Br.CN1CCC[C@@H]1Cc1c[nH]c2ccc(CCS(=O)(=O)c3ccccc3)cc12` [ELETRIPTAN HYDROBROMIDE], the “Bacterial Biotransformation” value is “Compound NOT metabolized”.

For `CC(C)OC(=O)C(C)(C)Oc1ccc(C(=O)c2ccc(Cl)cc2)cc1` [FENOFIBRATE], the “Bacterial Biotransformation” value was “Compound metabolized”.
